The record followed here is PubChem BioAssay AID1902 (Broad Institute, 2009).

As a reminder, the EC50 is the concentration giving half of the maximal effect.

Molecules are shown by their SMILES. Activity calls are given as the source filed them.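 Rule for the calls: active = EC50 no more than a set limit of log units above the highest dose; inactive = the rest.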

In this experiment the target is S. pyogenes SKKanGAS, kanamycin survival, BacTiterGlo, 6 h. The experiment is described as follows: S. pyogenes SKKanGAS kanamycin growth inhibitors – SKKanGAS strain, luminescence, dose confirmation, streptokinase promoter inhibitor project, dose response (AID 1902).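 Note: lower survival reflects blocked streptokinase promoter driving kanamycin resistance gene.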
For `Cc1ccc(-n2c(-c3ccc(Br)cc3)c[n+]3c2CCc2ccc4cccnc4c2-3)cc1`, the EC50 is 3.6 µM. Consider `CNC[C@H](CC1CCCCC1)NC[C@H](Cc1ccccc1)NCCC12CC3CC(CC(C3)C1)C2`, for which the EC50 was 2.94 µM. Take `COc1ccc(CNC(=O)c2c(C)oc3c2C(=O)c2ccccc2C3=O)cc1`: the EC50 is 0.81 µM.

For `Cn1c(N)c(C(=O)COC(=O)CCc2c[nH]c3ccccc23)c(=O)n(C)c1=O`, the EC50 was 9.68 µM.

As to `O=C(NC(=S)N1CCN(c2c(Cl)cccc2[N+](=O)[O-])CC1)c1cccs1`, the EC50 is 5.15 µM. For `COc1ccc(C(=O)NNC(=S)NC(=O)/C=C/c2cccs2)cc1` the value was 0.598 µM. Then `CCC[C@@H]1C[C@@]1(CCC)[C@@H](NP(=O)(c1ccccc1)c1ccccc1)c1ccc(C(=O)OC)cc1`, with 2.14 µM; and `CC(Oc1cccc(Cl)c1)C(=O)Nc1ccccc1N1CCCCC1` (centres undefined), with 3.04 µM. For `Cc1cc(C)cc(-n2c(C)cc(/C=C3\C(=N)N4N=C(CC(C)C)SC4=NC3=O)c2C)c1` the value was 2.67 µM. As to `Cc1cc(/C=C2/C(=N)N3C(=NC2=O)SN=C3S(C)(=O)=O)c(C)n1-c1ccc(F)cc1`, the EC50 was 4.98 µM. In the case of `C/C(=N\Nc1cc(C)nc(-c2ccccc2O)n1)c1ccccc1O`, the 50% effective concentration (EC50) was 5.37 µM. For `COc1cccc(CC(=O)OCC(=O)Nc2nnc(-c3ccccc3)o2)c1` the value was 4.58 µM; for `Nc1ccc(-c2cn3cccnc3n2)cc1`, > 15 µM (inactive). For `CC1=C(C#N)c2nc(N)c(C#N)c(C)c2/C1=C\c1ccc(C)cc1` the value was 6.18 µM. Take `O=C(N/N=C/c1sc2ccccc2c1O)c1ccccc1`: the EC50 is 0.929 µM. For `CC1CCCC(C)N1c1nnc(NC(=O)c2cc(-c3ccc(Br)cc3)on2)s1` (centres undefined) the value was 2.79 µM; for `COc1ccc2nc(Nc3nc(C)c(C(C)=O)s3)sc2c1`, 6.64 µM; for `CCCCCCCCCCCCOC(=O)C[N+](C)(C)C`, 3.02 µM. Turning to `c1ccc(-c2cc3c(NCC4COc5ccccc5O4)ncnc3s2)cc1` (centres undefined), the concentration giving a half-maximal response (EC50) was 2.98 µM. In the case of `COc1ccc2nc(-n3c(O)c(C4=c5ccccc5=NC4=O)[nH]c3=S)sc2c1`, the concentration for a half-maximal effect (EC50) is 0.508 µM. As for `C=CCOC(=O)C1=C(C)NC(SCC)=C(C#N)C1c1ccc(Cl)cc1` (centres undefined), the half-maximal effective concentration (EC50) is 5.92 µM. For `CC(C)=CCCC1(C)C=Cc2c(ccc3c2[nH]c2cc(O)c(C)cc23)O1` (centres undefined) the value was 3.04 µM; for `CSc1ccc(/C=C/c2ccc3cccc(O)c3n2)cc1`, 1.97 µM. As for `Cc1cccc(CCNC(=O)CC2C(=O)NCCN2Cc2ccccc2C)n1` (centres undefined), the EC50 is > 15 µM (inactive). With `CCOC(=O)c1cc(-c2cccs2)nc2c1c(C)nn2-c1ccccn1`, the EC50 is 2.64 µM. For `CC(=O)OCC1=C(C(=O)O)N2C(=O)C(NC(=O)c3ccc(F)cc3)C2SC1` (centres undefined) the value was 2.9 µM; for `COc1ccc(C(=O)c2c(C(F)(F)F)oc3c2C(=O)c2ccccc2C3=O)cc1`, 1.99 µM. Then `COc1ccc(N(CC(=O)NCCSCc2cccc(Cl)c2)S(C)(=O)=O)cc1Cl`, with 4.72 µM. Then `CC(=O)NC(c1ccccc1)c1cc(Cl)c2cccnc2c1O` (centres undefined), with 1.17 µM; and `O=c1cc(/N=C/c2coc3c(ccc4ccccc43)c2=O)[nH]c(=S)[nH]1`, with 1.53 µM; and `O=[N+]([O-])c1ccc(NC(=S)NCCc2ccc(Cl)cc2)cc1`, with 1.73 µM. As to `CC(=O)NC(c1ccc(C)cc1)c1cc(Cl)c2cccnc2c1O` (centres undefined), the EC50 is 1.42 µM. As for `Cc1cccc2sc(NNC(=O)c3cc(=O)c4ccccc4o3)nc12`, the concentration for a half-maximal effect (EC50) was 0.42 µM.

As for `Cc1cc(N/N=C/c2ccc(O)c(C)c2O)nc(-c2ccccc2O)n1`, the EC50 is 3.09 µM.

For the molecule `CCN(CC)C(=S)SCC(=O)Nc1nc(-c2ccccc2)c(-c2ccccc2)o1`, the EC50 was 1.26 µM. For `COc1ccc(NC(=O)CN(C)C(=O)/C=C/c2cn(-c3ccccc3)nc2-c2ccc(F)cc2)cc1` the value was 8.39 µM; for `Cc1cc(N2C(=O)C(O)=C(C(=O)c3cc4ccccc4o3)C2c2ccc(Br)cc2)no1` (centres undefined), 1.24 µM.

Regarding `CC(CNC(=S)Nc1cc(F)cc(F)c1)CSc1ccc(Cl)cc1` (centres undefined), the EC50 is 8.56 µM. For `COc1ccc(-c2cc(-c3ccc(C)cc3)n[nH]2)c(O)c1` the value was 2.76 µM; for `CC(C)(C)c1cc(C(=O)Nc2ccc(F)cc2)n(Cc2ccc(F)cc2)n1`, 3.77 µM; for `O=C(NNC(=S)NC(=O)c1cccc([N+](=O)[O-])c1)c1ccc(Br)cc1`, 2.07 µM. For `COc1ccc(C(=O)N2CCCC(Nc3ccc(C)c(C)c3)C2)cc1F` (centres undefined) the value was > 15 µM (inactive); for `CCCC(NC(=S)NCC1CCCO1)C12CC3CC(CC(C3)C1)C2` (centres undefined), 5.79 µM; for `O=c1[nH]c2ccc(Cl)cc2c(-c2ccccc2)c1N1CCN(c2ccccn2)CC1`, 2.83 µM.

Consider `CC(=O)Nc1nc2ccccc2n1CCOc1ccccc1`, for which the concentration giving a half-maximal response (EC50) was 11.3 µM. Then `N#Cc1c(-c2ccccc2)nc(SCC(=O)N2c3ccccc3Sc3ccccc32)[nH]c1=O`, with 3.87 µM. For `CCOC(=O)c1ccc(NC(=O)c2nc[nH]c2C(=O)N[C@@H](CCCCNC(=O)OC(C)(C)C)C(=O)OC(C)(C)C)cc1` the value was 4.72 µM; for `CC1(C)N=C(N)N=C(N)N1c1ccc(Oc2ccc(Cl)cc2)c(Cl)c1`, below 0.06 µM. Regarding `O=C(O)CN1C(=O)/C(=C\c2cc(Br)ccc2OCc2ccccc2Cl)SC1=S`, the EC50 is 2.08 µM. In the case of `Oc1ccccc1-c1nc2c3ccccc3c3ccccc3c2[nH]1`, the EC50 is 2.43 µM. `CN(C)[C@@H]1C(=O)C(C(N)=O)=C(O)[C@@]2(O)C(=O)C3=C(O)c4c(O)cccc4[C@@](C)(O)C3[C@H](O)C12` (some centres undefined): the EC50 was 0.095 µM. Then `CCOC(=O)C1CCN(C(=O)c2ccc3c(=O)n4nc(Nc5cc(C)ccc5C)sc4nc3c2)CC1`, with 8.2 µM; and `C/C(=N\NC(=S)NCC(C)(C)C)c1cc(F)cc(F)c1O`, with 2.65 µM. For `CCOC(=O)c1sc(NC(=O)Nc2ccc(Cl)cc2)cc1C` the value was 10.1 µM; for `CCCSc1nsc(NC(=O)C(c2ccccc2)c2ccccc2)n1`, 3.03 µM; for `Cc1ccc(C2C(/C=C3/SC(=S)NC3=O)=C(c3cccs3)Oc3ccccc32)cc1` (centres undefined), 0.643 µM. Then `CCn1c(=O)c(C(=O)NNC(=O)c2ccc(Cl)cc2Cl)c(O)c2ccccc21`, with 1.99 µM; and `Cc1ccccc1CN(C)CC(=O)Nc1ccccc1-c1ccccc1`, with 3.3 µM; and `COc1ccc(-c2nc(-c3ccc4c(c3)OCO4)[nH]c2-c2ccc(OC)cc2)cc1`, with 4.71 µM. As for `CCCC(=O)NC(c1ccc(Cl)cc1Cl)c1ccc2cccnc2c1O` (centres undefined), the EC50 is 0.912 µM. For `Cc1ccc(Cc2cnc(N3C(=N)SC(C)C3=O)s2)cc1` (centres undefined) the value was 0.298 µM; for `CC(C)(C)c1ccc(C(=O)NNC(=S)NC(=O)c2cccnc2)cc1`, 0.249 µM. As to `Nc1nc(Nc2ccccc2)nc(NC2CCCCC2)c1[N+](=O)[O-]`, the EC50 is 5.57 µM. On to `CCC(NC(=S)NC1CCCCC1)c1ccc(C(C)C)cc1` (centres undefined), for which the concentration for a half-maximal effect (EC50) is 5.2 µM. As to `Cc1cc(C)n(-c2nc(SCC(=O)O)c3c4c(sc3n2)COC(C)(C)C4)n1`, the half-maximal effective concentration (EC50) is 4.31 µM.

`Cc1ccc(CN2C(=O)c3ccccc3NC2c2cc(Br)ccc2O)cc1` (centres undefined): the half-maximal effective concentration (EC50) is 4.31 µM. Then `COc1ccccc1N1CCN(Cc2nc(N)nc(Nc3ccc(C)c(Cl)c3)n2)CC1`, with 7.99 µM; and `CCCN(CCC)S(=O)(=O)c1ccc(C(=O)Nc2nnc(-c3cc(OC)cc(OC)c3)o2)cc1`, with 0.192 µM.

`CC(C)CC(=O)NC(NC(=S)Nc1sc2c(c1C#N)CCCC2)C(Cl)(Cl)Cl` (centres undefined): the 50% effective concentration (EC50) was 1.66 µM. Then `CC(C)(C)c1ccc(C(=O)N/N=C/c2ccccn2)cc1`, with 3.3 µM; and `COc1ccc(N2CCN(C(=O)c3cc(C)oc3C)CC2)cc1`, with > 15 µM (inactive). In the case of `CC/C(=N\NC(=S)Nc1cc(C)ccc1C)c1ccc(OC(F)F)cc1`, the concentration giving a half-maximal response (EC50) is 3.13 µM. For `COc1ccccc1NC(=O)NCCCCc1ccccc1` the value was > 15 µM (inactive); for `Cc1nnc(Sc2cc(NCCCO)c([N+](=O)[O-])c3nonc23)s1`, 7.78 µM; for `Oc1c(N=NC(=S)Nc2ccccc2F)c2ccccc2n1Cc1ccc(F)cc1`, 0.892 µM.

As to `COc1ccccc1/C=N\Nc1cc(C)nc(-n2nc(C)cc2C)n1`, the EC50 was 6.26 µM. For the molecule `Cc1ccc(Cn2nnc3c(=O)[nH]c(C4CCN(S(=O)(=O)c5cc(C)ccc5C)CC4)nc32)cc1`, the concentration for a half-maximal effect (EC50) was 6.26 µM.

For the molecule `Cc1cc(O)c(NC(=S)NC(=O)c2ccc(-c3ccc(Cl)cc3)o2)cc1C`, the EC50 was 0.76 µM. For `O=C1c2ccccc2C2=Nc3ccccc3SC(c3ccccc3F)C12` (centres undefined) the value was 3 µM; for `O=C(CN1c2ccccc2Sc2ccccc21)NNC(=O)Nc1cccc(Cl)c1`, 4.97 µM; for `CC(C)c1ccc2c(c1)c(SC(C)(C)C)c(CC(C)(C)C(=O)O)n2Cc1ccc(Cl)cc1`, 0.875 µM.

Consider `CC(=O)c1sc(N/N=C\c2c(O)ccc3ccccc23)nc1C`, for which the EC50 was 4.08 µM. Then `Cc1nc(-c2ccc(S(=O)(=O)Nc3ccc(Br)cc3Cl)s2)cs1`, with 5.14 µM; and `Cc1cccc(NCc2nc3ccccc3n2Cc2ccccc2)c1`, with 2.75 µM. For `C/C(=N\NC(=O)COc1ccccc1-c1ccccc1)c1ccc(O)cc1O` the value was 3.89 µM; for `O=C(NCc1ccc(C(F)(F)F)cc1)c1ccc2c(c1)S(=O)(=O)c1ccccc1C2=O`, > 15 µM (inactive). For `Cc1ccc(NC(=S)NC(=O)c2ccc(F)cc2)cc1S(=O)(=O)Nc1cccc(Cl)c1` the value was 2.19 µM.

Take `CC(C)Nc1nc(NC(C)C)nc(N(C)N)n1`: the concentration giving a half-maximal response (EC50) is 3.07 µM.

In the case of `O=C(Nc1nc2ccccc2n1CCOc1ccccc1)c1ccco1`, the EC50 is 6.87 µM. For `CCn1cc(C(=O)O)c(=O)c2cc(F)c(N/N=C/c3ccccc3[N+](=O)[O-])cc21` the value was 4.39 µM; for `Cc1cccc(C(=O)NC(=S)NNC(=O)c2ccc(Cl)cc2)c1`, 0.187 µM.

On to `C=CCn1c(COc2ccccc2)nnc1SCC(=O)N/N=C/c1cc(Cl)ccc1O`, for which the EC50 is 3.32 µM. For `Cc1ccc(NS(=O)(=O)c2cc([N+](=O)[O-])ccc2NNC(=S)Nc2cccc(Cl)c2)c(C)c1` the value was 0.865 µM; for `COc1ccc2oc(=O)c(-c3csc(Nc4ccc(O)cc4)n3)cc2c1`, 2.16 µM.
